From patent US8093274B2, “Inhibitors of protein prenyltransferases” (The Regents of the University of California, priority 2006, dated 2012)
Where two headings read alike, the source gives them in different places.

Legend:
Format in all cases: biochemical
GGTase I = GGTase I (Homo sapiens, UniProt P49354+P53609); test: GGTase I assay, substrate not specified or K-Ras4B and RhoA compared; details: for inhibition of GGTase I: FIG. 16; for substrate preference of GGTase I inhibition (RhoA vs K-Ras4B), known GGTIs: FIG. 17; for GGTI activity in screen of 138 heterocycles: K-Ras4B or RhoA substrate, 30 min
Experimental: (§1) The pilot library was screened for inhibitors of protein geranylgeranyltransferase type I. Protein prenyltransferase assays were carried out by using filter binding. Two different substrates, RhoA and K-Ras4B, were used for the assay. RhoA ends with the CaaL motif and is an exclusive substrate for GGTase I, while K-Ras4B ends with the CaaX motif and is modified by both GGTase I and FTase.
(§2) The % activity of GGTase I was determined as follows: a working solution that contained each compound in DMSO at the concentration of 1 mM was prepared. The working solution was added to GGTase I reaction mixture so that the final concentration of the compound is 50 μM. GGTase I activity was assayed by incubating [^3H]GGPP with K-Ras4B or RhoA protein in the presence of GGTase I and examining radioactivity incorporated into the substrate protein by spotting onto a filter paper. After washing with TCA, ethanol and acetone, the radioactivity retained on the filter was determined by the use of a scintillation counter. GGTase I activity in the presence of DMSO was taken as a 100% value and the activity in the presence of the compound was shown as percent activity compared with the 100% value. […] For 6-aryl-4-mercapto-N-sulfonyl-piperidine-3-carboxylic acid 11 the 4-mercapto substituent appeared critical to endowing GGTase inhibitory activity. […] 4-Chlorobenzylthio substituent was the next best; 12 compounds out of 21 containing the 4-chlorobenzylthio moiety were active. 4-Benzylthio substituent was also good; 7 piperidines out of 21 bearing 4-benzylthio group were active. […] 19 imines (C15>C12=C41>C40>C01=C11>C05=C10=C30=C35=C37=C38>C02, C03, C04, C06, C39=C43) out of 21 appeared in the GGTIs. […] This corresponds to 47 6-aryl-4-mercapto-N-sulfonyl-piperidine-3-carboxylic acids out of 357 compounds.
(§3) A collection of 138 heterocycles was screened for their ability to inhibit the activity of human GGTase-I to geranylgeranylate K-Ras4B or RhoA. Purified GGTase-1 was incubated with its substrate protein K-Ras4B or RhoA, [^3H]GGPP, and the 138 compounds. After 30 min, the degree of incorporation of tritiated geranylgeranyl groups was measured using a scintillation counter.

[1] = molecular target: GGTase I (substrate RhoA) (Homo sapiens, UniProt P49354+P53609); test: GGTase I filter-binding assay with RhoA as substrate; details: for IC50: FIG. 15, read-out: IC50 for the inhibition of GGTase I using RhoA as a substrate; for activity at 50 µM: read-out: % activity of GGTase I for protein RhoA in the presence of the compound
Experimental: as §1, §2, §3
The GGTase-I assay was carried out using RhoA as a substrate protein, GGTase-I (JENA Bioscience) and [3H]geranylgeranyl pyrophosphate. Incubation was for 30 min at 37 C. GGTase-H (or RabGGTase) assay was carried out using YPT1 as a substrate protein, GGTase-H (Calbiochem, San Diego, Calif.) plus REP1 (Calbiochem) and [3H]geranylgeranyl pyrophosphate. Incubation was for 30 min at 37 C. FIGS. 20D-20F show the three dimensional structure of GGTase I (D), FTsse (E) and GGTase II (F) which can be obtained from X-ray diffraction studies of protein crystals.

[2] = molecular target: T1, protein farnesyltransferase (FTase) (Rattus norvegicus, UniProt Q02293+Q04631); test: Protein farnesyltransferase assay with K-Ras4B and [3H]FPP; details: FIG. 16; concentration increased to 100 μM
T1 construct: purchased JENA Bioscience
Excerpt: To further characterize the pilot library, inhibitors of protein farnesyltransferase were identified. This was accomplished by using K-Ras4B as a substrate protein, tritiated farnesylpyrophosphate ([^3H]FPP) and protein farnesyltransferase. See Finegold, A. A., Johnson, D. I., Farnsworth, C. C., Gelb, M. H., Judd, S. R., Glomset, J. A. and Tamanoi, F. (1991) Protein geranylgeranyltransferase of Saccharomyces cerevisiae is specific for Cys-Xaa-Xaa-Leu motif and requires the CDC43 gene product but not the DPRI gene product. Proc. Natl. Acad. Sci. USA 88, 4448-4452. […] On the other hand, the structure of the compounds P1-F11, P2-B7 and P2-E9 resemble those of GGTIs. The FTI P1-F11 resembles the GGTI P1-F10, while the FTI P2-B7 resembles the GGTI P2-C10. The FTI P2-E9 is similar to the GGTI P2-G3. Similarity of some GGTI and FTI compounds may point to common structural features between the two closely related enzymes. As described before, FTase and GGTase I have similar three-dimensional structures and a shared alpha subunit. On the other hand, FTase specific inhibitors may recognize a region(s) that is different between the two enzymes.
Varying concentrations of the two compounds were added to each enzyme reaction. The FTase (protein farnesyltransferase) assay was carried out using K-Ras4B as a substrate protein, FTase (JENA Bioscience, San Diego, Calif.) and […] pyrophosphate. Incubation was for 30 min at 37 C.

[3] = molecular target: GGTase I (substrate K-Ras4B) (Homo sapiens, UniProt P49354+P53609); test: GGTase I filter-binding assay with K-Ras4B as substrate; details: read-out: % activity of GGTase I for protein K-Ras4B in the presence of the compound
Experimental: as §1, §2, §3

[4] = 50 μM compound, DMSO = 100%, smaller numbers indicate better inhibition, first number of pair
[5] = 50 μM compound, DMSO = 100%, smaller numbers indicate better inhibition, second number of pair

Structure (SMILES)	activity at 50 µM [3, 4] [%]	activity at 50 µM [1, 5] [%]	other results
COC(=O)[C@H](CC(C)C)NC(=O)c1ccc(NC[C@@H](N)CS)cc1-c1cccc2ccccc12 [GGTI-298, reference compound]	–	–	inhibition of GGTase I (GGTase I): inhibits GGTase I; substrate preference of GGTase I inhibition (RhoA vs K-Ras4B), known GGTIs (GGTase I): inhibit RhoA-driven GGTase I activity slightly better than K-Ras4B-driven GGTase I activity; IC50 [1]: 1600 nM; inhibition of FTase activity [2]: little inhibition was observed with FTase
COC(=O)C(CC(C)C)NC(=O)c1ccc(NCc2cnc[nH]2)cc1-c1ccccc1C (centres unmarked) [GGTI-2166, reference compound]	–	–	substrate preference of GGTase I inhibition (RhoA vs K-Ras4B), known GGTIs (GGTase I): inhibit RhoA-driven GGTase I activity slightly better than K-Ras4B-driven GGTase I activity; IC50 [1]: 500 nM
CC[C@@H]1C=C(C(=O)O)[C@H](c2ccc(F)cc2)N1S(=O)(=O)c1ccc(C)cc1 [compound 1]	–	–	GGTI activity in screen of 138 heterocycles (GGTase I): identified as GGTIs
O=C(O)C1=CCC(c2ccc(Cl)cc2)N(S(=O)(=O)c2ccc(Cl)cc2)[C@H]1c1cccc(Cl)c1 (some centres unmarked) [P3-D9]	33.1	26.7	IC50 [1]: 5000 nM; inhibition of FTase activity [2]: no inhibition of FTase activity was observed
Cn1cncc1CN1C[C@@H](Cc2ccccc2)N(S(=O)(=O)c2cccs2)Cc2cc(C#N)ccc21 [BMS225975, reference compound]	–	–	inhibition of GGTase I (GGTase I): does not inhibit GGTase I; inhibition of FTase activity [2]: inhibits FTase
Cc1ccc(S(=O)(=O)N2C(c3ccc(Cl)c(Cl)c3)CC=C(C(=O)O)[C@@H]2c2cccc(Cl)c2)cc1 (some centres unmarked)	–	–	activity at 50 µM [3]: 10.7%; activity at 50 µM [1]: 4.5%
O=C(O)C1=CCC(c2ccc(Cl)cc2)N(S(=O)(=O)c2ccc(Cl)cc2)[C@H]1c1cccc(Br)c1 (some centres unmarked)	8.6	5	–
Cc1ccccc1S(=O)(=O)N1C(c2ccc(Cl)cc2)CC=C(C(=O)O)[C@@H]1c1ccccc1 (some centres unmarked)	–	–	activity at 50 µM [3]: 13.4%; activity at 50 µM [1]: 5.8%
Cc1ccc(S(=O)(=O)N2[C@@H](c3ccccc3)C(C(=O)O)=CC[C@H]2c2ccc(F)cc2)cc1 [compound 2]	–	–	GGTI activity in screen of 138 heterocycles (GGTase I): identified as GGTIs
Cc1ccccc1S(=O)(=O)N1C(c2ccc(Cl)cc2)CC=C(C(=O)O)[C@@H]1c1ccccc1F (some centres unmarked)	8.4	4.1	–
Cc1ccccc1S(=O)(=O)N1C(c2ccc(Cl)cc2)CC=C(C(=O)O)[C@@H]1c1cccc(Br)c1 (some centres unmarked)	10.6	8.8	–

Second part, led by results:

activity at 50 µM [3, 4] [%]	activity at 50 µM [1, 5] [%]	Structure (SMILES)	other results
43.7	6	Cc1ccc(S(=O)(=O)N2C(c3cccc(Cl)c3)CC=C(C(=O)O)[C@@H]2c2cccc(Cl)c2)cc1 (some centres unmarked)	–
21.4	9.6	C=CCS[C@H]1[C@@H](C(=O)O)[C@H](c2ccc(Cl)c(Cl)c2)N(S(=O)(=O)c2ccc(C)cc2)[C@@H]1CCCC	–
12.6	10.3	Cc1ccc(S(=O)(=O)N2C(c3ccc(Cl)c(Cl)c3)CC=C(C(=O)O)[C@@H]2c2cccc(C)c2)cc1 (some centres unmarked)	–
24.9	6	C=CCS[C@H]1[C@@H](C(=O)O)[C@H](c2ccc(Cl)cc2)N(S(=O)(=O)c2ccccc2C)[C@@H]1CCCCCC	–
20.6	5.6	Cc1ccc(S(=O)(=O)N2[C@H](CC3CCCC3)[C@@H](SCCC(=O)OC(C)(C)C)[C@@H](C(=O)O)[C@@H]2c2cccc(Cl)c2)cc1	–
10.9	1.1	CCC[C@@H]1[C@@H](Sc2ccc(OC)cc2)[C@@H](C(=O)O)[C@H](c2ccc(Cl)c(Cl)c2)N1S(=O)(=O)c1ccc(C)cc1	–
8.4	7.4	Cc1ccc(C2CC=C(C(=O)O)[C@H](c3cccc(Br)c3)N2S(=O)(=O)c2ccc(Cl)cc2)cc1 (some centres unmarked)	–
23.5	7.1	CCCCCS[C@H]1[C@@H](C(=O)O)[C@H](c2cccc(F)c2)N(S(=O)(=O)c2ccc(C)cc2)[C@@H]1CCCC	–
48.7	8	COc1ccc(S[C@H]2[C@@H](C(=O)O)[C@H](c3ccc(Cl)cc3)N(S(=O)(=O)c3ccc(Cl)cc3)[C@@H]2C(C)C)cc1	–
25.5	6.5	CC[C@@H]1[C@@H](Sc2ccc(OC)cc2)[C@@H](C(=O)O)[C@H](c2cccc(Cl)c2)N1S(=O)(=O)c1ccc(C)cc1	–
25.2	7.7	C=CCS[C@H]1[C@@H](C(=O)O)[C@H](c2ccc(Cl)cc2)N(S(=O)(=O)c2ccc(C)cc2)[C@@H]1CC1CCCC1	–
10	7.8	Cc1ccccc1S(=O)(=O)N1[C@H](CC2CCCC2)[C@@H](SCCC(=O)OC(C)(C)C)[C@@H](C(=O)O)[C@@H]1c1ccc(Cl)cc1	–
12.4	15.6	Cc1ccc([C@H]2C(C(=O)O)=CCC(c3ccc(Cl)c(Cl)c3)N2S(=O)(=O)c2ccc(C)cc2)cc1 (some centres unmarked)	–
